Assay results as given in patent US7169808B2, “Compounds useful for the preparation of medicaments with phosphodiesterase IV inhibitory activity” (Sigma-Tau Industrie Farmaceutiche Riunite S.p.A., priority 2000, dated 2007).
One block for each compound: values may come before it.

Key:
[1] = system: Rolipram receptor (H)PDE4; assay: competition at the rolipram receptor; assay type: binding, Mouse; settings: ratio IC50 (H)PDE4 / IC50 (L)PDE4
From the text: (§1) The following determination of IC50 for inhibition of PDE IV activity and competition at the rolipram receptor, conducted with standard processes, e.g. as described by Duplantier A. J. et al., J. Med. Chem. 39: 120, 1996 and by Thorphy T. J. et al., J Pharmacol. Exp. Ther., 263: 1195, 1992 have yielded the following results for compounds figuring among the examples envisaged within the framework of the invention described herein
(§2) N.C. means value not calculable because of no inhibition at the highest test concentration, however it means low affinity for rolipram receptor.

[2] = molecular target: T1, Rolipram receptor (H)PDE4; assay: competition at the rolipram receptor; assay type: binding, Mouse; settings: origin Mouse brain
T1 construct: IC50(μM) Rolipram receptor (H)PDE4; other: origin Mouse brain
From the text: as §1, §2

PDE2 = PDE2 (Homo sapiens, UniProt O00408); assay: PDE selectivity, PDE2; assay type: biochemical
PDE2, sequence (O00408 whole entry): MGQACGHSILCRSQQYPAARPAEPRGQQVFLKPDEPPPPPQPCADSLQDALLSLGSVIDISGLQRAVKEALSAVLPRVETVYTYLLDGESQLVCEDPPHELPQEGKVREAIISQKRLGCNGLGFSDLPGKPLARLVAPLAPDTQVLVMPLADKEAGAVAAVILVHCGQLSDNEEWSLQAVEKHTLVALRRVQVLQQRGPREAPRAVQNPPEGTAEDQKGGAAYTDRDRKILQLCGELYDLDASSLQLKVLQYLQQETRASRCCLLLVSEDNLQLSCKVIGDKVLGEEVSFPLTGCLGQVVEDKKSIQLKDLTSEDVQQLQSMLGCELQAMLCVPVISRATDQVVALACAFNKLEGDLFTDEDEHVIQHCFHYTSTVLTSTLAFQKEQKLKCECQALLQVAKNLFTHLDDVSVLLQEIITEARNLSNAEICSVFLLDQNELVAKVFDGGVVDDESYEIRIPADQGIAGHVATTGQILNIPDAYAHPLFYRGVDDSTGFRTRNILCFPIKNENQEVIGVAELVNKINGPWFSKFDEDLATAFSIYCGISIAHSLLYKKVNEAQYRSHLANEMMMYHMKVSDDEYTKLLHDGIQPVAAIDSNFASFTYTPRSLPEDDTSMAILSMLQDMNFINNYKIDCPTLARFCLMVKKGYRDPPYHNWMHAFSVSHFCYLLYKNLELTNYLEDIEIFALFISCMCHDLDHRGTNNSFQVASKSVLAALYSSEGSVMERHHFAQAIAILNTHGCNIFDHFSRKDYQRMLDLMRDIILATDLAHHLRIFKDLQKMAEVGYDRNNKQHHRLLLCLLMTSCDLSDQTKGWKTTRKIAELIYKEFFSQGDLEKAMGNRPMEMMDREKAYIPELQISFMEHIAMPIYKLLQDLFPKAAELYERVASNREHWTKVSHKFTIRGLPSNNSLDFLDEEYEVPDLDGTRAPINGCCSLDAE
From the text: (§3) These assays have yielded the following results for compounds figuring among the examples envisaged within the framework of the invention described herein.

PDE IV = PDE IV inhibition at a single concentration; assay type: biochemical; settings: human; concentration 100 μM
From the text: Assays conducted with standard procedures, e.g. as described by Cortij et al., Br. J. Pharmacol. 108:562, 1993 or Nicholsen CD et al., Trends Pharmacol. Sci. 12:19, 1991 have yielded the following results for compounds figuring among the examples envisaged within the framework of the invention described herein.

PDE3 = assay: PDE selectivity, PDE3; assay type: biochemical, human
From the text: as §3

PDE1 = assay: PDE selectivity, PDE1; assay type: biochemical, bovine
From the text: as §3

PDE4 Activity (L)PDE4 = assay: IC50 for inhibition of PDE IV activity; assay type: biochemical; settings: origin Human
From the text: as §1

PDE5 = PDE5 (Homo sapiens, UniProt O76074); assay: PDE selectivity, PDE5; assay type: biochemical
From the text: as §3

PDE4 = assay: PDE selectivity, PDE4; assay type: biochemical, human
From the text: as §3

PDE6 = assay: PDE selectivity, PDE6; assay type: biochemical, bovine
From the text: as §3

Compound: COc1ccc(C(=O)CCC(=O)O)cc1OC1CCCC1 [ST 1689, 4-[3-(cyclopentyloxy)-4-methoxyphenyl]-4-oxo-butanoic acid]
melting point: 111 to 113 °C

Compound: COC(=O)/C(=C/c1ccc(OC)c(OC2CCCC2)c1)CCC(=O)O [ST 1977, (4E)-5-[3-(ciclopentyloxy)-4-methoxyphenyl]-4-(methoxycarbonyl)-4-pentenoic acid]
H/L [1]: 7.13
IC50 [2]: 9.27 µM
IC50 (PDE4 Activity (L)PDE4): 1.3 µM

Compound: COC(=O)C(CC(=O)NO)Cc1ccc(OC)c(OC2CCCC2)c1 (racemic) [ST 1505, (R,S)-3-methoxycarbonyl-4-(3-cyclopentyloxy-4-methoxyphenyl)butane-hydroxamic acid]
H/L [1]: 0.74
IC50 [2]: 3.5 µM
% inhibition (PDE IV): 86%
IC50 (PDE4 Activity (L)PDE4): 4.7 µM

Compound: COC(=O)C/C(=C\c1ccc(OC)c(OC2CCCC2)c1)C(=O)OC [ST 1945, methyl (3E)-3-methoxycarbonyl-4-(3-cyclopentoxy-4-methoxyphenyl)-3-butenoate]
H/L [1]: 0.33
IC50 [2]: 0.571 µM
IC50 (PDE4 Activity (L)PDE4): 0.19 µM

Compound: COC(=O)C(CC(=O)O)Cc1ccc(OC)c(OC2CCCC2)c1 (centres unmarked) [ST 1504]
H/L [1]: >1.15
IC50 [2]: > 10 µM
% inhibition (PDE IV): 84%
IC50 (PDE4 Activity (L)PDE4): 8.7 µM

Continued, in another order:

H/L [1]: 0.51
IC50 [2]: 0.615 µM
inhibition at 100 µM (PDE2): 16%
IC50 (PDE4 Activity (L)PDE4): 1.2 µM
inhibition at 100 µM (PDE5): 30%
Compound: COC(=O)/C(=C/c1ccc(OC)c(OC2CCCC2)c1)CC(=O)NO [ST 1701, methyl (2E)-3-[3-(cyclopentyloxy)-4-methoxyphenyl]-2-[2-(hydroxyamino)-2-oxoethyl]-2-propenoate]
% inhibition (PDE IV): 88%
% PDE inhibition at 100 μM PDE3 (human) (PDE3): 52%
% PDE inhibition at 100 μM PDE1 (bovine) (PDE1): 42%
% PDE inhibition at 100 μM PDE4 (human) (PDE4): 94%
% PDE inhibition at 100 μM PDE6 (bovine) (PDE6): 58%

IC50 (PDE4 Activity (L)PDE4): 6.2 µM
Compound: COC(=O)/C(=C/c1ccc(OC)c(OC2CCCC2)c1)CC(=O)O [ST 1503, (3E)-4-[3-(cyclopentyloxy)-4-methoxyphenyl]-3-(methoxycarbonyl)-3-butenoic acid]
